Assays:
Conditions in all cases: exposure: 5-72 hpf
[1] = system: Danio rerio embryo (fli1:egfp); assay: heart rate at 72 hpf (beats per minute); higher = faster heart rate
Procedure: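 fli1:egfp zebrafish embryos exposed 5-72 hpf to chemical (0.05-50 µM, 0.1% DMSO) in 384-well plates; heart rate at 72 hpf quantified from stream acquisitions by semi-automated MetaXpress journal (peak counting); only embryos in concentrations passing survival/body-length criteria analyzed.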

[2] = system: Danio rerio embryo (fli1:egfp); assay: pericardial area at 72 hpf (image area units (not stated)); higher = larger pericardial area (edema)
Procedure: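 fli1:egfp zebrafish embryos exposed 5-72 hpf to chemical (0.05-50 µM, 0.1% DMSO); pericardial area at 72 hpf measured by semi-automated MetaXpress journal (increase indicates edema).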

[3] = system: Danio rerio embryo (fli1:egfp); assay: body length at 72 hpf (µm); higher = longer body (less growth inhibition)
Procedure: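 Transgenic fli1:egfp zebrafish embryos (one per well, 384-well plate) exposed statically from 5 to 72 hpf at 28 °C to chemical (0.05-50 µM, 0.1% DMSO); at 72 hpf anesthetized and imaged on ImageXpress; body length of live, hatched, correctly oriented embryos measured by automated MetaXpress journal. Dead/unhatched/misoriented embryos have no value.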

[4] = system: Danio rerio embryo (fli1:egfp); assay: intersegmental vessel area normalized to body length at 72 hpf (ISV area / body length (normalized units)); higher = more vessel area
Procedure: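 fli1:egfp zebrafish embryos exposed 5-72 hpf to chemical (0.05-50 µM, 0.1% DMSO); intersegmental vessel (ISV) eGFP area quantified by MetaXpress journal at 72 hpf and normalized to body length.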

[5] = system: Danio rerio embryo (fli1:egfp); assay: arterial (dorsal aorta) circulation score at 72 hpf (normalized DA-Max (arbitrary units)); higher = more circulation
Procedure: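 fli1:egfp zebrafish embryos exposed 5-72 hpf to chemical (0.05-50 µM, 0.1% DMSO); arterial circulation at 72 hpf quantified from stream acquisitions of the dorsal aorta by FFT-based analysis (DA-Max, normalized dorsal aorta signal); only concentrations passing survival/body-length criteria analyzed.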

CC1(C)C(C=C(Cl)Cl)C1C(=O)OC(C#N)c1ccc(F)c(Oc2ccccc2)c1 (stereo not given) [Cyfluthrin]
Conditions | arterial, [5] | body length at 72 hpf, [3] | heart rate at 72 hpf, [1] | intersegmental vessel area normalized, [4] | pericardial area at 72 hpf, [2]
0.05 µM | 14.9 | 3010 | 185 | 80.1 | 16100
0.098 µM | 14.7 | 3040 | 187 | 71.9 | 14000
0.195 µM | 16.3 | 3030 | 188 | 80.3 | 12900
0.39 µM | 12.4 | 3070 | 193 | 83.3 | 13300
0.78 µM | 9.66 | 3020 | 202 | 71.9 | 14900
1.56 µM | 13 | 2900 | 198 | 78.4 | 16800
3.125 µM | 14.7 | 2790 | 190 | 92.3 | 16900
6.25 µM | – | 2620 | – | – | –

CN1CSC(=S)N(C)C1 [Dazomet]
0.05 µM
Conditions | arterial | body length at 72 hpf | heart rate at 72 hpf | intersegmental vessel area normalized | pericardial area at 72 hpf
[1] | – | – | 168 | – | –
[2] | – | – | – | – | 15600
[3] | – | 2860 | – | – | –
[4] | – | – | – | 72.7 | –
[5] | 14.4 | – | – | – | –

CC(C)[C@H](C(=O)O[C@H](C#N)c1cccc(Oc2ccccc2)c1)c1ccc(Cl)cc1 [Esfenvalerate]
Conditions | arterial, [5] | body length at 72 hpf, [3] | heart rate at 72 hpf, [1] | intersegmental vessel area normalized, [4] | pericardial area at 72 hpf, [2]
0.05 µM | 9.88 | 3070 | 184 | 72.5 | 14800
0.098 µM | 10.8 | 3140 | 182 | 76.8 | 16600
0.195 µM | 10.1 | 3150 | 196 | 76.2 | 14700
0.39 µM | 10.9 | 3090 | 198 | 76.1 | 15300
0.78 µM | 10.1 | 3140 | 195 | 75.7 | 15800
1.56 µM | 10.3 | 3160 | 194 | 63.9 | 15900
3.125 µM | 13.2 | 2970 | 188 | 88.9 | 14100
6.25 µM | 11.9 | 2830 | 188 | 88.2 | 14600
12.5 µM | – | 2760 | – | – | –
25 µM | – | 2640 | – | – | –
50 µM | – | 2750 | – | – | –

CC1(C)C(C(=O)OC(C#N)c2cccc(Oc3ccccc3)c2)C1(C)C (stereo not given) [Fenpropathrin]
Conditions | arterial, [5] | body length at 72 hpf, [3] | heart rate at 72 hpf, [1] | intersegmental vessel area normalized, [4] | pericardial area at 72 hpf, [2]
0.05 µM | 18.5 | 2970 | 183 | 83.1 | 14600
0.098 µM | 13.8 | 2950 | 197 | 80.8 | 13400
0.195 µM | 11.2 | 2970 | 191 | 73.2 | 14500
0.39 µM | 10.7 | 2940 | 192 | 83.8 | 14400
0.78 µM | 12.6 | 2780 | 192 | 85.4 | 13200
1.56 µM | 20.9 | 2720 | 188 | 90.6 | 13400
3.125 µM | 21.2 | 2710 | 186 | 82.2 | 13600
6.25 µM | – | 2640 | – | – | –
12.5 µM | – | 2590 | – | – | –

CCOC(=O)COc1cc(-n2ncc(C(F)(F)F)c(C)c2=O)c(F)cc1Cl [Flufenpyr-ethyl]
Conditions | arterial, [5] | body length at 72 hpf, [3] | heart rate at 72 hpf, [1] | intersegmental vessel area normalized, [4] | pericardial area at 72 hpf, [2]
0.05 µM | 8.79 | 2990 | 169 | 84.4 | 12800
0.098 µM | 9.74 | 3000 | 178 | 70.8 | 13000
0.195 µM | 9.58 | 3040 | 181 | 75.2 | 12300
0.39 µM | 8.94 | 3080 | 180 | 77.1 | 13600
0.78 µM | 9.32 | 3020 | 186 | 74.8 | 13300
1.56 µM | 8.81 | 3020 | 182 | 75.8 | 13600
3.125 µM | 6.7 | 2950 | 181 | 82.9 | 15300
6.25 µM | 5.21 | 2810 | 166 | 83.5 | 25900

CCN(Cc1c(F)cccc1Cl)c1c([N+](=O)[O-])cc(C(F)(F)F)cc1[N+](=O)[O-] [Flumetralin]
Conditions | arterial, [5] | body length at 72 hpf, [3] | heart rate at 72 hpf, [1] | intersegmental vessel area normalized, [4]
0.05 µM | 16.7 | 3020 | 183 | 67.3
0.098 µM | 16.1 | 3080 | 174 | 74.9
0.195 µM | 16.8 | 3050 | 177 | 79.1
0.39 µM | 15 | 3010 | 176 | 72.5
0.78 µM | 15.4 | 2980 | 181 | 76.2
1.56 µM | 15.1 | 2850 | 182 | 84
3.125 µM | – | 2770 | – | –
6.25 µM | – | 2670 | – | –
12.5 µM | – | 2670 | – | –
25 µM | – | 2670 | – | –
50 µM | – | 2620 | – | –

CCCCCOC(=O)COc1cc(N2C(=O)C3=C(CCCC3)C2=O)c(F)cc1Cl [Flumiclorac-pentyl]
Conditions | arterial, [5] | body length at 72 hpf, [3] | heart rate at 72 hpf, [1] | intersegmental vessel area normalized, [4] | pericardial area at 72 hpf, [2]
0.05 µM | 11.7 | 3040 | 166 | 55.7 | 14500
0.098 µM | 10.9 | 2980 | 159 | 66.5 | 15200
0.195 µM | 10.3 | 2960 | 166 | 62.8 | 16200
0.39 µM | 10.7 | 2950 | 175 | 66.4 | 15300
0.78 µM | 9.99 | 3000 | 170 | 60.7 | 15200
1.56 µM | 11.6 | 3000 | 178 | 62.7 | 16100
3.125 µM | 11 | 2990 | 182 | 61.8 | 17000
6.25 µM | 8.2 | 2960 | 185 | 65.1 | 16400
12.5 µM | 8.36 | 3000 | 182 | 69.4 | 17700
